The values below come from paper PMC9133112, “The structural basis of Cdc7-Dbf4 kinase dependent targeting and phosphorylation of the MCM2-7 double hexamer” (Nature Communications, 2022).

The assay deals with T1, DDK (Dbf4-dependent Cdc7 kinase, Cdc7-Dbf4) (Saccharomyces cerevisiae, UniProt P06243).
T1 construct: full-length Cdc7-Dbf4, expressed in budding yeast, MBP tag cleaved with PreScission, lambda phosphatase treated; with DDK kinase regulatory subunit DBF4
T1 sequence (P06243 whole entry): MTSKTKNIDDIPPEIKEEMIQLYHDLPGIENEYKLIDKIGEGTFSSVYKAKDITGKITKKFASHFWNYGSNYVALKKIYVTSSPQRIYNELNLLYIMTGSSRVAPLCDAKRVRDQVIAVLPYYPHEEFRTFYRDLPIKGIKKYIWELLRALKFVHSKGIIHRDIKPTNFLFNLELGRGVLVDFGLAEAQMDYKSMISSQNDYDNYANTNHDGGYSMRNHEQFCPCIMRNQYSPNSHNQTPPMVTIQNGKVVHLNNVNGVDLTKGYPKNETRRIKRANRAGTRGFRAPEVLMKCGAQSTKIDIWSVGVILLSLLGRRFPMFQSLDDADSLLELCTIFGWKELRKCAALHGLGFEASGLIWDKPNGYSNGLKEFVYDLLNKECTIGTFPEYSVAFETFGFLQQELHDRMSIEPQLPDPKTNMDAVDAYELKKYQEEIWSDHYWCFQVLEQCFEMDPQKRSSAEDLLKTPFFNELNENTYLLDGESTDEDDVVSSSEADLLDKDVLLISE
T1 sequence (P32325 whole entry partner): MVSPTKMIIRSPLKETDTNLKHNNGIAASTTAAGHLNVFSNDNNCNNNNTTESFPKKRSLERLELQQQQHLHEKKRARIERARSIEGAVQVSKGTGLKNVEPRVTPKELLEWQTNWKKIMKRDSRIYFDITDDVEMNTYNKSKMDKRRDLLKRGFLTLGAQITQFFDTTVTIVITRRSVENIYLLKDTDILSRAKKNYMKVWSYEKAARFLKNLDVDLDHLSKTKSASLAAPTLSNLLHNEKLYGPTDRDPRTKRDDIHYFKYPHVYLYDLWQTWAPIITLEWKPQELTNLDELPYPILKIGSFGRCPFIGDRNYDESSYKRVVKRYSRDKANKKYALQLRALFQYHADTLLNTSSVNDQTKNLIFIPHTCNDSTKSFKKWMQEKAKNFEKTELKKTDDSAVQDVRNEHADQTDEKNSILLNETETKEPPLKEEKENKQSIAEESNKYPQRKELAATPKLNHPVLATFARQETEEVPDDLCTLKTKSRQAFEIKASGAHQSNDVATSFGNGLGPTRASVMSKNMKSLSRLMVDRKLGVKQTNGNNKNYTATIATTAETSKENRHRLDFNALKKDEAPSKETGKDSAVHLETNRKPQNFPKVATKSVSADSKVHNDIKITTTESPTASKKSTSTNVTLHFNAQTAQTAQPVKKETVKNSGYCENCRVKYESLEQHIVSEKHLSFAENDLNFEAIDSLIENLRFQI
Briefly: inhibition of MCM2-7 phosphorylation by DDK (gel). It is filed as biochemical. Conditions: substrate MCM2-7.
As to `O=C1NCCc2[nH]c(-c3ccncc3)cc21` [PHA767491], the inhibition entry is “DDK phosphorylation of MCM2-7 is inhibited by the human Cdc7 inhibitors: XL413, PHA767491 and TAK931”. Under `Cc1[nH]ncc1-c1cc2nc([C@@H]3CC4CCN3CC4)[nH]c(=O)c2s1` [TAK931] stands “DDK phosphorylation of MCM2-7 is inhibited by the human Cdc7 inhibitors: XL413, PHA767491 and TAK931”; under `O=c1[nH]c([C@@H]2CCCN2)nc2c1oc1ccc(Cl)cc12` [XL413], “DDK phosphorylation of MCM2-7 is inhibited by the human Cdc7 inhibitors: XL413, PHA767491 and TAK931”.
